Test systems include RXF 393; NCI-H460; SF-268; SNB-75; EKVX; MOLT-4; 786-0; UO-31; OVCAR-5; OVCAR-3; UACC-62; LOX IMVI; HT-29; A549; CAKI-1; MDA-N; NCI/ADR-RES; COLO 205; SNB-19; HCT-15.
What all share (assay): inhibition of tumour cell growth, NCI panel, 48 h

Each structure is given as a SMILES string.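 Test compounds were applied to cells in 96-well plates for 48 hours at 5 doses. The concentration for 50% growth inhibition is given as GI50.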 Activity calls are given as the source filed them. Cut-off read from the data, not from the text of the source: active = GI50 up to about 1.1 µM and inactive = higher. Non-standard residues stand in square brackets, D forms with d. Residues, ends and D or L forms follow the SMILES beside them. *: point of attachment. Bn2Val = CC(C)[C@@H](C(=O)*)N(Cc1ccccc1)Cc1ccccc1; NMeV = CN[C@H](C(=O)O)C(C)C; X32 = COc1ccc(CN*)c(OC)c1; dNMeA = CN[C@H](C)C(=O)O

Turning to `Cc1ccnc2c1ccc1nc3ccccc3n12`, the GI50 with RXF 393 was 56.2 µM (inactive); with NCI-H460, 45.6 µM (inactive); in the assay with SF-268, 25.1 µM (inactive); in the assay with SNB-75 it was 31.7 µM (inactive); in the assay with EKVX it was 1.88 µM (inactive); with MOLT-4, > 100 µM (inactive). Besides, the GI50 in the assay on 786-0 is 52.6 µM (inactive); in the assay on UO-31 it was 30.6 µM (inactive); in the assay on OVCAR-5 it was > 100 µM (inactive); in the assay with OVCAR-3 it was > 100 µM (inactive); in the assay on UACC-62 it was > 100 µM (inactive); with LOX IMVI it was > 100 µM (inactive). Besides, the GI50 is 77.4 µM (inactive) with HT-29; > 100 µM (inactive) in the assay with A549; 11.4 µM (inactive) in the assay on CAKI-1; > 100 µM (inactive) in the assay on MDA-N; 37.8 µM (inactive) in the assay with NCI/ADR-RES; > 100 µM (inactive) in the assay with COLO 205.
With `Fc1ccc(C(OCCN2CCC3CCC(C2)N3C/C=C/c2ccco2)c2ccc(F)cc2)cc1` (stereo not drawn), the GI50 in the assay on SNB-19 is 15.7 µM (inactive); with RXF 393, 4.4 µM (inactive); with NCI-H460 it was 7.11 µM (inactive); in the assay on SF-268, 12.5 µM (inactive); with SNB-75, 15.1 µM (inactive); in the assay with MOLT-4 it was 4.78 µM (inactive). Moreover, the GI50 is 9.4 µM (inactive) in the assay on 786-0; 15.1 µM (inactive) in the assay with UO-31; 11.4 µM (inactive) in the assay with OVCAR-3; 13.8 µM (inactive) in the assay on UACC-62; 11.2 µM (inactive) in the assay with LOX IMVI; 12.5 µM (inactive) with A549. Further, the GI50 with HCT-15 was 5.09 µM; in the assay with CAKI-1, 12.8 µM (inactive); with MDA-N, 12.4 µM (inactive); with NCI/ADR-RES, 7.4 µM (inactive); in the assay on COLO 205 it was 1.69 µM (inactive).
As to `O=C(C[C@@H]1NCCC[C@H]1O)Cn1cnc2cc(Br)c(Cl)cc2c1=O`, the GI50 with SNB-19 was 0.0204 µM (active); in the assay with RXF 393, 0.0277 µM (active); with NCI-H460, 0.0127 µM (active); in the assay on SF-268 it was 0.0315 µM (active); in the assay with SNB-75, 0.0403 µM (active); with EKVX, 0.0244 µM (active). Also, the GI50 was 0.0266 µM (active) with MOLT-4; 0.0182 µM (active) in the assay with 786-0; 0.0376 µM (active) with UO-31; < 0.0135 µM (active) in the assay on OVCAR-5; < 0.0176 µM (active) in the assay with OVCAR-3; < 0.01 µM (active) in the assay on LOX IMVI. Besides, the GI50 in the assay on HT-29 was 0.022 µM (active); in the assay with A549 it was 0.0128 µM (active); with HCT-15, 0.0276 µM; in the assay on CAKI-1 it was 0.0583 µM (active); in the assay on MDA-N, 0.0138 µM (active); in the assay with NCI/ADR-RES it was 0.0416 µM (active). In the assay on COLO 205, the GI50 is 0.0165 µM (active).
Consider `COc1cc([C@@H]2c3cc4c(cc3[C@@H](OC3OC5COC(C)OC5C(OC(=O)CN5CCN(C)CC5)C3OC(=O)CN3CCN(C)CC3)C3COC(=O)[C@@H]32)OCO4)cc(OC)c1OC(=O)CN1CCN(C)CC1` (stereo partly drawn), for which the GI50 with SNB-19 is 78.7 µM (inactive); with RXF 393 it was > 100 µM (inactive); in the assay with NCI-H460, 11.2 µM (inactive); with SF-268, 75.3 µM (inactive); in the assay on SNB-75, 28.5 µM (inactive); in the assay on EKVX it was > 100 µM (inactive). For the same compound, the GI50 in the assay on MOLT-4 is 2.49 µM (inactive); with 786-0, 21.9 µM (inactive); with UO-31 it was 68.9 µM (inactive); with OVCAR-5 it was > 100 µM (inactive); in the assay on OVCAR-3 it was > 100 µM (inactive); in the assay on UACC-62, > 100 µM (inactive). The GI50 with LOX IMVI is 36.5 µM (inactive); in the assay on HT-29, > 100 µM (inactive); in the assay on HCT-15, above 100 µM; in the assay on CAKI-1, 37.7 µM (inactive); with MDA-N, > 100 µM (inactive); in the assay with NCI/ADR-RES, 29.9 µM (inactive). The GI50 in the assay with COLO 205 was > 100 µM (inactive).
In the case of `CS(=O)(=O)Nc1ccc2c(c1)N(S(C)(=O)=O)CC2COS(C)(=O)=O` (stereo not drawn), the GI50 in the assay with RXF 393 was 18.7 µM (inactive); in the assay on NCI-H460 it was 90.8 µM (inactive); in the assay on SF-268, > 10 µM (inactive); with SNB-75, 57.7 µM (inactive); in the assay on EKVX, > 100 µM (inactive); in the assay on MOLT-4 it was 32.5 µM (inactive). For the same compound, the GI50 with 786-0 is 31 µM (inactive); in the assay on UO-31, > 100 µM (inactive); with OVCAR-5, 40.5 µM (inactive); in the assay on OVCAR-3, 34.6 µM (inactive); in the assay with UACC-62, > 100 µM (inactive); in the assay on LOX IMVI, 70 µM (inactive). In addition, the GI50 in the assay on HT-29 is > 100 µM (inactive); in the assay on A549 it was > 100 µM (inactive); in the assay on HCT-15, above 100 µM; with CAKI-1, 24.6 µM (inactive); in the assay with MDA-N it was > 100 µM (inactive); in the assay on NCI/ADR-RES it was > 100 µM (inactive). Moreover, the GI50 in the assay with COLO 205 was > 100 µM (inactive).
Regarding `O=C(O)C1C2CCC(O2)C1C(=O)NCc1cccnc1` (stereo not drawn), the GI50 in the assay on SNB-19, in the assay on RXF 393, in the assay on NCI-H460, in the assay with SNB-75, with EKVX and in the assay on 786-0 was > 100 µM (inactive) in each case. Also, the GI50 in the assay with UO-31, in the assay on OVCAR-5, in the assay on OVCAR-3, in the assay on UACC-62, with LOX IMVI and in the assay on HT-29 was > 100 µM (inactive) in each case. For the same compound, the GI50 in the assay with A549 was > 100 µM (inactive); in the assay on HCT-15, above 100 µM; in the assay with CAKI-1, > 100 µM (inactive); in the assay with MDA-N, > 100 µM (inactive); with NCI/ADR-RES, > 100 µM (inactive); in the assay with COLO 205, > 100 µM (inactive).
For `CCN(CC)CCC(=O)c1ccc(Oc2ccc(C)cc2)cc1`, the GI50 was 18.5 µM (inactive) in the assay on SNB-19; 16.4 µM (inactive) with RXF 393; 18.8 µM (inactive) in the assay on SF-268; 20.2 µM (inactive) with SNB-75; 20 µM (inactive) with EKVX; 21.6 µM (inactive) with MOLT-4. In addition, the GI50 in the assay with 786-0 was 16.5 µM (inactive); in the assay with OVCAR-5, 19.5 µM (inactive); in the assay with OVCAR-3, 17.6 µM (inactive); in the assay with UACC-62, 17.3 µM (inactive); in the assay on LOX IMVI, 16.7 µM (inactive); in the assay on HT-29 it was 18.9 µM (inactive). Also, the GI50 was > 100 µM (inactive) in the assay with A549; 18.7 µM with HCT-15; 17.3 µM (inactive) in the assay on CAKI-1; 17.7 µM (inactive) with MDA-N; 23 µM (inactive) in the assay on NCI/ADR-RES; 23.4 µM (inactive) with COLO 205.
Regarding `COC(=O)c1ccc(Oc2nc3ccc(C(F)(F)F)cc3nc2-c2ccccc2)cc1`, the GI50 with RXF 393 was 74.5 µM (inactive); with NCI-H460 it was 83.2 µM (inactive); with SF-268, > 100 µM (inactive); with SNB-75 it was > 100 µM (inactive); with EKVX, 55.5 µM (inactive); in the assay on MOLT-4 it was 66.4 µM (inactive). The GI50 with 786-0, with UO-31, with OVCAR-5, in the assay with OVCAR-3, in the assay on UACC-62 and in the assay on LOX IMVI was > 100 µM (inactive) in each case. Besides, the GI50 with HT-29 was > 100 µM (inactive); in the assay with A549, > 100 µM (inactive); with HCT-15 it was above 100 µM; in the assay on CAKI-1 it was > 100 µM (inactive); in the assay with MDA-N it was > 100 µM (inactive); in the assay on NCI/ADR-RES, > 100 µM (inactive). The GI50 in the assay with COLO 205 is > 100 µM (inactive).
In the case of `O=c1[nH]c(Nc2nc3ccccc3[nH]2)nc2c1CCC2`, the GI50 is > 100 µM (inactive) with SNB-19; 96.4 µM (inactive) in the assay on RXF 393; > 100 µM (inactive) with NCI-H460; 43.6 µM (inactive) in the assay with SF-268; 30 µM (inactive) in the assay with SNB-75; 44.7 µM (inactive) in the assay with 786-0. Also, the GI50 in the assay with UO-31, in the assay on OVCAR-5, in the assay on OVCAR-3, with UACC-62, in the assay on LOX IMVI and in the assay on HT-29 was > 100 µM (inactive) in each case. Besides, the GI50 is > 100 µM (inactive) in the assay on A549; above 100 µM in the assay on HCT-15; > 100 µM (inactive) in the assay on CAKI-1; > 100 µM (inactive) in the assay on MDA-N; > 100 µM (inactive) in the assay with NCI/ADR-RES; > 100 µM (inactive) in the assay with COLO 205.
On to `CCOC(=O)/C(=C\c1ccc(CO)o1)P(=O)(OCC)OCC`, for which the GI50 with SNB-19 was 63.2 µM (inactive); in the assay on RXF 393, 34.3 µM (inactive); in the assay with NCI-H460, 17 µM (inactive); in the assay on SF-268 it was 28.2 µM (inactive); with SNB-75, 33 µM (inactive); in the assay with EKVX it was > 100 µM (inactive). Moreover, the GI50 in the assay with MOLT-4 was 56.8 µM (inactive); in the assay with 786-0 it was 19.7 µM (inactive); in the assay on OVCAR-5, 50 µM (inactive); in the assay on OVCAR-3, 18.9 µM (inactive); in the assay on UACC-62 it was 38.7 µM (inactive); in the assay on LOX IMVI, 18.5 µM (inactive). The GI50 with HT-29 was 33.2 µM (inactive); in the assay with A549, > 100 µM (inactive); in the assay on HCT-15, 18.4 µM; in the assay with CAKI-1 it was 55.7 µM (inactive); in the assay with MDA-N, 22.8 µM (inactive); in the assay with NCI/ADR-RES it was 22.2 µM (inactive). For the same compound, the GI50 in the assay on COLO 205 is 23 µM (inactive).
Turning to `COc1ccc(CNC(=O)[C@@H]2CCCN2C(=O)[C@@H](C)N(C)C(=O)[C@H](C(C)C)N(C)C(=O)[C@@H](NC(=O)[C@H](C(C)C)N(Cc2ccccc2)Cc2ccccc2)C(C)C)c(OC)c1` (Bn2Val-V[NMeV][dNMeA]P-X32), the GI50 with SNB-19 was 3.4 µM (inactive); in the assay with RXF 393, 1.85 µM (inactive); in the assay on NCI-H460, 3.52 µM (inactive); with SF-268 it was 3.71 µM (inactive); in the assay on SNB-75, 1.52 µM (inactive); in the assay with EKVX it was 2.69 µM (inactive). Besides, the GI50 is 3.28 µM (inactive) in the assay with 786-0; 3.86 µM (inactive) with UO-31; 1.59 µM (inactive) in the assay with OVCAR-5; 3.63 µM (inactive) in the assay on OVCAR-3; 4.18 µM (inactive) in the assay with UACC-62; 2.84 µM (inactive) in the assay with LOX IMVI. Further, the GI50 is 1.74 µM (inactive) with HT-29; 3.77 µM (inactive) in the assay on A549; 3.05 µM in the assay on HCT-15; 4.04 µM (inactive) in the assay on CAKI-1; 2.35 µM (inactive) in the assay on MDA-N; 2.97 µM (inactive) in the assay on NCI/ADR-RES. For the same compound, the GI50 in the assay on COLO 205 was 2.29 µM (inactive).

The record behind these values is ChEMBL document CHEMBL1201862, “PubChem BioAssay data set” (2004).
